Read-outs that look alike come from different tables or passages of the source.
Assay type: in vivo, Sprague Dawley male rats
Settings: rat, in vivo, ip
Procedure: The ability of a compound of the invention to treat anemia associated with post-ischemic acute renal failure was assayed using a procedure described by Vaziri et al. (1994, Am J Physiol 266(3 Pt 2):[…]-6.) Fifteen Sprague Dawley male rats (280-300 g) were obtained from Charles River Laboratories. On day 0, rats were treated by intraperitoneal injection with a single dose of saline (control; n=3) at 8 ml/kg, or cisplatin (CP; Bedford Laboratories, Bedford Ohio) at either 7 mg/kg (7 ml/kg; n=6) or 10 mg/kg (10 ml/kg; n=6). Blood samples (0.2 ml) were collected on days 5, 9, and 16 as follows. […] Blood samples were processed for hematocrit as described above to determine the degree of anemia produced in each animal. […] Blood samples (0.5 ml) were collected as described above immediately prior to treatment and 4 days after treatment initiation. Blood samples were analyzed for CBC and reticulocyte counts as described above. On day 9 after initiation of oral treatment, a blood sample (0.1 ml) was collected and processed for hematocrit as described above.

For `N.N.[Cl][Pt][Cl]` [CP, cisplatin, reference compound], the “reduction of hematocrit relative to controls” value (7 mg/kg) was 14% and the “reduction of hematocrit relative to controls” value (10 mg/kg) was 22%.

Source: US20130203805A1, “Methods for treating anemia using inhibitors of hypoxia-inducible factor (HIF) hydroxylase” (FIBROGEN, INC., priority 2001, published 2013)
